Source: US4410516A, “1-N(αHydroxy-ω-aminoalkanoyl) derivatives of 5,3',4'-trideoxy- or 5,3', 4'-trideoxy-6'-N- methyl- or 5, 3', 4',6"-tetradeoxykannamyci B and production thereof” (Zaidan Hojin Biseibutsu Kagaku Kenkyu Kai, priority 1981, dated 1983)
Values after ≈ are worked out from the molar mass of the structure shown. Where two headings read alike, the source gives them in different places.

Key:
[1] = system: Pseudomonas aeruginosa TI-13; assay: Minimum inhibitory concentration, serial dilution on nutrient agar; format: cell-based; details: TI13, 18 h
[2] = system: Escherichia coli JR66/W677; assay: as above; format: cell-based
[3] = system: Pseudomonas aeruginosa GN315; assay: as above; format: cell-based; details: GN315, nutrient agar, 37° C., 18 hours incubation, read-out: MIC
[4] = system: Mycobacterium smegmatis ATCC 607; assay: as above; format: cell-based; details: Mycolicibacterium smegmatis, ATCC607; nutrient agar, 37° C., 18 hours incubation; read-out: MIC
[5] = system: Klebsiella pneumoniae PCI 602; assay: as above; format: cell-based; details: PCI602, nutrient agar, 37° C., 18 hours incubation, read-out: MIC
[6] = system: Escherichia coli K-12 LA 290 R56; assay: as above; format: cell-based; details: K12LA290R56, 18 h
Escherichia coli JR255 = assay: as above; format: cell-based; details: JR255, nutrient agar, 37° C., 18 hours incubation, read-out: MIC
[7] = system: Staphylococcus aureus AP01; assay: as above; format: cell-based; details: 37° C., 18 hours incubation
[8] = system: Pseudomonas aeruginosa K-Ps102; assay: as above; format: cell-based
Proteus rettgeri GN466 = assay: as above; format: cell-based; details: Providencia rettgeri, GN466, 18 h
[9] = system: Salmonella enteritidis 1891; assay: as above; format: cell-based; details: Salmonella enterica, 18 h
[10] = system: Pseudomonas aeruginosa A3; assay: as above; format: cell-based; details: 37° C., 18 hours incubation
[11] = system: Pseudomonas aeruginosa 99; assay: as above; format: cell-based
Serratia marcescens = assay: as above; format: cell-based; details: 37° C., 18 hours incubation
Serratia SOU = assay: as above; format: cell-based; details: 37° C., 18 hours incubation
Sarcina lutea PCI 1001 = assay: as above; format: cell-based; details: Micrococcus luteus, PCI1001; nutrient agar, 37° C., 18 hours incubation; read-out: MIC
[12] = system: Pseudomonas aeruginosa H9; assay: as above; format: cell-based; details: H9, 18 h
[13] = system: Micrococcus flavus FDA 16; assay: as above; format: cell-based; details: FDA16, nutrient agar, 37° C., 18 hours incubation, read-out: MIC
Serratia 4 = assay: as above; format: cell-based; details: 37° C., 18 hours incubation
[14] = system: Pseudomonas aeruginosa PST1; assay: as above; format: cell-based; details: PST1, nutrient agar, 37° C., 18 hours incubation, read-out: MIC
[15] = system: Escherichia coli K-12 ML 1410; assay: as above; format: cell-based
[16] = system: Pseudomonas aeruginosa B-13; assay: as above; format: cell-based; details: B13, 37° C., 18 hours incubation
Providencia Pv 16 = assay: as above; format: cell-based; details: PV16, 37° C., 18 hours incubation
[17] = system: Escherichia coli K-12 ML 1629; assay: as above; format: cell-based; details: K12ML1629, nutrient agar, 37° C., 18 hours incubation, read-out: MIC
[18] = system: Pseudomonas aeruginosa 21-75; assay: as above; format: cell-based; details: 2175, 37° C., 18 hours incubation
Proteus rettgeri GN311 = assay: as above; format: cell-based; details: Providencia rettgeri, 37° C., 18 hours incubation
Proteus vulgaris OX19 = assay: as above; format: cell-based; details: 37° C., 18 hours incubation
[19] = system: Escherichia coli K-12 LA 290 R64; assay: as above; format: cell-based; details: K12LA290R64, 18 h
Escherichia coli K-12 R5 = assay: as above; format: cell-based; details: K12R5, 18 h
[20] = system: Pseudomonas maltophilia GN907; assay: as above; format: cell-based; details: Stenotrophomonas maltophilia, 37° C., 18 hours incubation
Escherichia coli K-12 = assay: as above; format: cell-based; details: K12, nutrient agar, 37° C., 18 hours incubation, read-out: MIC
[21] = system: Shigella dysenteriae JS 11910; assay: as above; format: cell-based; details: JS11910, 18 h
[22] = system: Klebsiella pneumoniae 22 #3038; assay: as above; format: cell-based; details: 18 h
[23] = Acute toxicity by intravenous injection in mice; details: mouse, in vivo
[24] = system: Staphylococcus aureus Smith; assay: Minimum inhibitory concentration, serial dilution on nutrient agar; format: cell-based; details: 37° C., 18 hours incubation

Row | SMILES | MIC [1] [µg/mL] | MIC [3] [µg/mL] | MIC [4] [µg/mL] | MIC [5] [µg/mL] | MIC [6] [µg/mL] | MIC (Escherichia coli JR255) [µg/mL] | MIC [7] [µg/mL] | MIC (Proteus rettgeri GN466) [µg/mL] | MIC [9] [µg/mL] | MIC [10] [µg/mL] | MIC (Serratia marcescens) [µg/mL] | MIC (Serratia SOU) [µg/mL] | MIC (Sarcina lutea PCI 1001) [µg/mL] | MIC [12] [µg/mL] | MIC [13] [µg/mL] | MIC (Serratia 4) [µg/mL] | MIC [14] [µg/mL] | MIC [16] [µg/mL] | MIC (Providencia Pv 16) [µg/mL] | MIC [17] [µg/mL] | also measured
1 | C[C@H]1O[C@H](O[C@@H]2C[C@H](O[C@H]3O[C@H](CN)CC[C@H]3N)[C@@H](N)C[C@H]2NC(=O)[C@@H](O)CCN)[C@H](O)[C@@H](N)[C@@H]1O [AHB-tetradeoxyKMB, 1-N-[(S)-4-amino-2-hydroxybutyryl]-5,3',4',6"-tetradeoxykanamycin B] | 3.13 (≈ 6.01 µM) | 100 (≈ 192 µM) | < 0.2 | 0.78 (≈ 1.5 µM) | 0.39 (≈ 0.749 µM) | 0.78 (≈ 1.5 µM) | 0.78 (≈ 1.5 µM) | 1.56 (≈ 3 µM) | 3.13 (≈ 6.01 µM) | 0.78 (≈ 1.5 µM) | 25 (≈ 48 µM) | 100 (≈ 192 µM) | 0.78 (≈ 1.5 µM) | 3.13 (≈ 6.01 µM) | 6.25 (≈ 12 µM) | 25 (≈ 48 µM) | 6.25 (≈ 12 µM) | 12.5 (≈ 24 µM) | 25 (≈ 48 µM) | 0.78 (≈ 1.5 µM) | MIC ([2]; JR66/W677, 18 h): 1.56 µg/mL (≈ 3 µM); MIC ([8]; KPS102, 18 h): 3.13 µg/mL (≈ 6.01 µM); MIC ([11]; Pseudomonas aeruginosa, 99, nutrient agar, 37° C., 18 hours incubation, read-out: MIC): 6.25 µg/mL (≈ 12 µM); MIC ([15]; K12ML1410, 18 h): 1.56 µg/mL (≈ 3 µM); MIC [18]: 12.5 µg/mL (≈ 24 µM); MIC (Proteus rettgeri GN311): 25 µg/mL (≈ 48 µM); MIC (Proteus vulgaris OX19): 0.39 µg/mL (≈ 0.749 µM); MIC [19]: 0.78 µg/mL (≈ 1.5 µM); MIC (Escherichia coli K-12 R5): 50 µg/mL (≈ 96 µM); MIC [20]: > 100 µg/mL; MIC (Escherichia coli K-12): 0.78 µg/mL (≈ 1.5 µM); MIC [21]: 1.56 µg/mL (≈ 3 µM); MIC [22]: 1.56 µg/mL (≈ 3 µM); LD50 [23]: 25 to 50 mg/kg; MIC [24]: < 0.2 µg/mL
2 | NCC[C@H](O)C(=O)N[C@@H]1C[C@H](N)[C@@H](O[C@H]2O[C@H](CN)CC[C@H]2N)C[C@H]1O[C@H]1O[C@H](CO)[C@@H](O)[C@H](N)[C@H]1O [AHB-trideoxyKMB, 1-N-[(S)-4-amino-2-hydroxybutyryl]-5,3',4'-trideoxykanamycin B] | 3.13 (≈ 5.83 µM) | 25 (≈ 46.6 µM) | 0.2 (≈ 0.373 µM) | 0.78 (≈ 1.45 µM) | 0.78 (≈ 1.45 µM) | 0.39 (≈ 0.727 µM) | 0.39 (≈ 0.727 µM) | 3.13 (≈ 5.83 µM) | 3.13 (≈ 5.83 µM) | 0.39 (≈ 0.727 µM) | 25 (≈ 46.6 µM) | 100 (≈ 186 µM) | 0.39 (≈ 0.727 µM) | 3.13 (≈ 5.83 µM) | 1.56 (≈ 2.91 µM) | 12.5 (≈ 23.3 µM) | 6.25 (≈ 11.6 µM) | 6.25 (≈ 11.6 µM) | 12.5 (≈ 23.3 µM) | 1.56 (≈ 2.91 µM) | MIC ([2]; JR66/W677, nutrient agar, 37° C., 18 hours incubation, read-out: MIC): 1.56 µg/mL (≈ 2.91 µM); MIC ([8]; KPS102, nutrient agar, 37° C., 18 hours incubation, read-out: MIC): 1.56 µg/mL (≈ 2.91 µM); MIC ([11]; Pseudomonas aeruginosa, 99, 18 h): 3.13 µg/mL (≈ 5.83 µM); MIC ([15]; K12ML1410, nutrient agar, 37° C., 18 hours incubation, read-out: MIC): 1.56 µg/mL (≈ 2.91 µM); MIC [18]: 6.25 µg/mL (≈ 11.6 µM); MIC (Proteus rettgeri GN311): 25 µg/mL (≈ 46.6 µM); MIC (Proteus vulgaris OX19): 0.39 µg/mL (≈ 0.727 µM); MIC [19]: 0.78 µg/mL (≈ 1.45 µM); MIC (Escherichia coli K-12 R5): 100 µg/mL (≈ 186 µM); MIC [20]: > 100 µg/mL; MIC (Escherichia coli K-12): 0.78 µg/mL (≈ 1.45 µM); MIC [21]: 3.13 µg/mL (≈ 5.83 µM); MIC [22]: 3.13 µg/mL (≈ 5.83 µM); LD50 [23]: 25 to 50 mg/kg; MIC [24]: < 0.2 µg/mL
